{
  "source": "patent US12435060B2",
  "about": "“Acylamino bridged heterocyclic compound, and composition and application thereof” (BEIJING SCITECH-MQ PHARMACEUTICALS LIMITED, priority 2019, dated 2025)",
  "system": "HT29 cells",
  "experiment": "Inhibition of cell necrosis (CCK8 method), induced programmed necrosis of HT29 cells",
  "assay_type": "cell-based",
  "conditions": "Homo sapiens, HT-29; rescue from necrosis induced by TNF-α 20 ng/mL, AT-406 1 μM, Z-VAD-FMK 20 μM; 16-20 hours; CCK-8, OD 450 nm",
  "outline": "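HT29 cells in McCOY's 5A with 10% FBS were pre-treated for 30 min with compound (9 fourfold steps, 25000 to 0.38 nM final, 0.25% DMSO). Necrosis was then induced with TNF-α 20 ng/mL, AT-406 1 μM and Z-VAD-FMK 20 μM for 16-20 h. Viability was read by CCK-8 OD450, normalized between uninduced and induced wells, and IC50 was curve-fitted.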",
  "data": [
    {"smiles": "CCCCCCCCOc1ccc(C)c(-c2ccnc(NC(=O)c3nnc(Cc4ccccc4)[nH]3)c2)c1", "note": "[Example 100, 5-benzyl-N-(4-(2-methyl-5-(octyloxy)phenyl)pyridin-2-yl)-4H-1,2,4-triazole-3-carboxamide]", "values": [
      {"measurement": "IC50", "result": "0.1 to 1", "unit": "µM"}
    ]},
    {"smiles": "CCOc1cccc(C)c1-c1ccnc(NC(=O)c2nnc(Cc3ccccc3)[nH]2)c1", "note": "[Example 93, 5-benzyl-N-(4-(2-ethoxy-6-methylphenyl)pyridin-2-yl)-4H-1,2,4-triazole-3-carboxamide]", "values": [
      {"measurement": "IC50", "result": "1 to 10", "unit": "µM"}
    ]},
    {"smiles": "COc1ccc(Cl)c(-c2ccnc(NC(=O)c3nnc(Cc4ccccc4)[nH]3)c2)c1", "note": "[Example 13, 5-benzyl-N-(4-(2-chloro-5-methoxyphenyl)pyridin-2-yl)-4H-1,2,4-triazole-3-carboxamide]", "values": [
      {"measurement": "IC50", "result": "1 to 10", "unit": "µM"}
    ]},
    {"smiles": "Cc1ccc(OCCCC(C)(C)O)cc1-c1ccnc(NC(=O)c2nnc(Cc3cc(F)cc(F)c3)[nH]2)c1", "note": "[Example 200, 5-(3,5-difluorobenzyl)-N-(4-(5-((4-hydroxy-4-methylpentyl)oxy)-2-methylphenyl)pyridin-2-yl)-4H-1,2,4-triazole-3-carboxamide]", "values": [
      {"measurement": "IC50", "result": "≤ 0.1", "unit": "µM"}
    ]},
    {"smiles": "CCC(O)(CC)CCCOc1ccc(C)c(-c2cc(NC(=O)c3nnc(CC4CCCCC4)[nH]3)ncc2Cl)c1", "note": "[Example 245, N-(5-chloro-4-(5-((4-ethyl-4-hydroxyhexyl)oxy)-2-methylphenyl)pyridin-2-yl)-5-(cyclohexylmethyl)-4H-1,2,4-triazole-3-carboxamide]", "values": [
      {"measurement": "IC50", "result": "≤ 0.1", "unit": "µM"}
    ]},
    {"smiles": "O=C(Nc1cc(-c2cc(OCCCCO)ccc2C(F)(F)F)ccn1)c1nnc(Cc2ccccc2)[nH]1", "note": "[Example 272, 5-benzyl-N-(4-(5-(4-hydroxybutoxy)-2-(trifluoromethyl)phenyl)pyridin-2-yl)-4H-1,2,4-triazole-3-carboxamide]", "values": [
      {"measurement": "IC50", "result": "≤ 0.1", "unit": "µM"}
    ]},
    {"smiles": "CCOc1ncc(C)cc1-c1ccnc(NC(=O)c2nnc(Cc3ccccc3)[nH]2)c1", "note": "[Example 51, 5-benzyl-N-(2-ethoxy-5-methyl-[3,4′-bipyridin]-2′-yl)-4H-1,2,4-triazole-3-carboxamide]", "values": [
      {"measurement": "IC50", "result": "1 to 10", "unit": "µM"}
    ]},
    {"smiles": "O=C(Nc1cc(-c2cc(OCC3CCOCC3)ccc2C(F)(F)F)ccn1)c1nnc(CC2CCCC2)[nH]1", "note": "[Example 303, 5-(cyclopentylmethyl)-N-(4-(5-((tetrahydro-2H-pyran-4-yl)methoxy)-2-(trifluoromethyl)phenyl)pyridin-2-yl)-4H-1,2,4-triazole-3-carboxamide]", "values": [
      {"measurement": "IC50", "result": "≤ 0.1", "unit": "µM"}
    ]},
    {"smiles": "Cc1ccc(OCCCC(C)(C)O)cc1-c1ccnc(NC(=O)c2nnc(CCC3CCCC3)[nH]2)c1", "note": "[Example 176, 5-(2-cyclopentylethyl)-N-(4-(5-((4-hydroxy-4-methylpentyl)oxy)-2-methylphenyl)pyridin-2-yl)-4H-1,2,4-triazole-3-carboxamide]", "values": [
      {"measurement": "IC50", "result": "≤ 0.1", "unit": "µM"}
    ]},
    {"smiles": "Cc1ccc(OCCF)cc1-c1ccnc(NC(=O)c2nnc(Cc3ccccc3)[nH]2)c1", "note": "[Example 68, 5-benzyl-N-(4-(5-(2-fluoroethoxy)-2-methylphenyl)pyridin-2-yl)-4H-1,2,4-triazole-3-carboxamide]", "values": [
      {"measurement": "IC50", "result": "0.1 to 1", "unit": "µM"}
    ]},
    {"smiles": "Cc1ccc(OCCCC(C)(C)O)cc1-c1ccnc(NC(=O)c2nnc(Cc3cccc(C#N)c3)[nH]2)c1", "note": "[Example 187, 5-(3-cyanobenzyl)-N-(4-(5-((4-hydroxy-4-methylpentyl)oxy)-2-methylphenyl)pyridin-2-yl)-4H-1,2,4-triazole-3-carboxamide]", "values": [
      {"measurement": "IC50", "result": "≤ 0.1", "unit": "µM"}
    ]},
    {"smiles": "COCCCOc1ccc(C)c(-c2ccnc(NC(=O)c3nnc(CC4CCCCC4)[nH]3)c2)c1", "note": "[Example 145, 5-(cyclohexylmethyl)-N-(4-(5-(3-methoxypropoxy)-2-methylphenyl)pyridin-2-yl)-4H-1,2,4-triazole-3-carboxamide]", "values": [
      {"measurement": "IC50", "result": "≤ 0.1", "unit": "µM"}
    ]},
    {"smiles": "Cc1ccc(F)cc1-c1ccnc(NC(=O)c2nnc(Cc3ccccc3)[nH]2)c1", "note": "[Example 33, 5-benzyl-N-(4-(5-fluoro-2-methylphenyl)pyridin-2-yl)-4H-1,2,4-triazole-3-carboxamide]", "values": [
      {"measurement": "IC50", "result": "0.1 to 1", "unit": "µM"}
    ]},
    {"smiles": "Cc1ccc(OCCCCC(C)(C)O)cc1-c1ccnc(NC(=O)c2nnc(Cc3ccccc3)[nH]2)c1", "note": "[Example 167, 5-benzyl-N-(4-(5-((5-hydroxyl-5-methylhexyl)oxy)-2-methylphenyl)pyridin-2-yl)-4H-1,2,4-triazole-3-carboxamide]", "values": [
      {"measurement": "IC50", "result": "≤ 0.1", "unit": "µM"}
    ]}
  ]
}
